In patent US20020146823A1, “Method for promoting hematopoietic and mesenchymal cell proliferation and differentiation” (The University of Southern California, priority 1997, published 2002):
“Also recorded” adds a separate entry of the source. No end group written: not given here.

Tests used:
[1] = system: Rat Peritoneal Macrophages; test: Phagocytic capability of rat peritoneal macrophages (opsonized yeast ingestion); type: cell-based, Sprague Dawley rats
Procedure: Resident peritoneal macrophages have very little phagocytic activity. Exposure of macrophages to inflammatory or activating agents will increase this macrophage function. Resident peritoneal macrophages were harvested from C57B1/6 mice or Sprague Dawley rats and resuspended at a concentration of 1×10^6 cells/ml in phosphate buffered saline (PBS). Five separate 0.5 ml cell aliquots were placed on a glass coverslip in a 35 mm petri dish. Prior to incubation, either 0.5 ml of PBS, AII, or AII analogues or fragments at between 1-1000 ug/ml final concentration was added to the individual cover slips. The dishes containing the cover slips were then incubated at 37° C. for 4 hours, after which the cover slips were washed 3 to 6 times with PBS. Opsonized yeast particles (Sigma Chemical Co.) (yeast opsonized with adult serum from the same species as that under study) were added to the cover slips and incubated for 2 hours, after which the cover slips were again washed with PBS and inverted onto a glass slide. The number of macrophages that ingested yeast and the number of yeast per macrophage ingested was then determined microscopically. At least 100 macrophages per coverslip were counted. The data from this study are summarized in Tables 3 and 4 and FIGS. 1 and 2.

[2] = system: human peripheral blood mononuclear cells (PBMC); test: Respiratory burst (hydrogen peroxide generation) in human PBMC; type: cell-based; conditions: PBMC; presence and absence of PMA
Procedure: The respiratory burst of leukocytes (macrophages and polymorphonuclear neutrophils) is one component of the mediator system used to kill bacteria. As with phagocytosis, the level of this respiratory burst activity in resident macrophages is low. […] Studies were conducted to assess the effect of in vitro exposure of murine or rat peritoneal macrophages and human peripheral blood mononuclear cells (PBMC) to various concentrations of AII on the capacity to generate hydrogen peroxide via the respiratory burst system. For the human studies, five different donors were examined.
The murine or rat peritoneal cells were harvested by lavage with 5-15 ml of cold PBS with 0.5% bovine serum albumin. The human PBMC were harvested by venipuncture from normal human volunteers and isolated from peripheral blood by Ficoll Hypaque density centrifugation. After isolation, the cells were resuspended at 1×10^6 cells/ml and placed at 100 μl per well into 96 well plates. The cells were incubated with various concentrations of AII or AII analogues and fragments for 4 hours at 37° C. The cells were then preloaded with a fluorescent probe for hydrogen peroxide, 2,7 dichlorofluorescein acetate, which is nonfluorescent in the absence of hydrogen peroxide. Fifteen minutes later, 10 ng/ml of phorbol myristate acetate (+PMA) or PBS (−PMA) was added to stimulate the production of hydrogen peroxide. One hour after stimulation the level of fluorescence produced was measured on a Cytofluor 2350 multiwell fluorometer.

[3] = Tests of effectiveness of AII fragments (test not specified)
Excerpt: Particularly preferred embodiments of this class include the following: AII, AIII or AII(2-8), […] [SEQ ID NO:2]; […] AII(1-7), […] {SEQ ID NO:4]; AII(2-7). […] [SEQ ID NO:5]; AII(3-7), […] [SEQ ID NO:6]; AII(5-8), […] [SEQ ID NO:7]; AII(1-6), […] [SEQ ID NO:8]; AII(1-5), […] [SEQ ID NO:9]; AII(1-4), […] [SEQ ID NO:10]; and AII(1-3), […] [SEQ ID NO:11]. Other preferred embodiments include: […] [SEQ ID NO:12] and […] [SEQ ID NO:13]. Still another preferred embodiment encompassed within the scope of the invention is a peptide having the sequence […] [SEQ ID NO:31]. AII(6-8), […] [SEQ ID NO:14] and AII(4-8), […] Particularly preferred is angiotensin III of the formula […] [SEQ ID NO:2]. Other preferred compounds include peptides having the structures […] [SEQ ID NO:17] and […] [SEQ ID NO:18].

| Substance | Number of Macrophages with Yeast (Yeast Number) ≧7 ([1]; peptide 100 μg/ml) | Number of Macrophages with Yeast (Yeast Number) 0 ([1]; peptide 1000 μg/ml) | Number of Macrophages with Yeast (Yeast Number) ≧7 ([1]; peptide 1000 μg/ml) | respiratory burst capacity after pre-exposure to analogues and fragments of AII [2] | effectiveness [3] | #/Cell ([1]; peptide 1000 μg/ml) | % w/Yeast ([1]; peptide 1000 μg/ml) | Number of Macrophages with Yeast (Yeast Number) 1-3 ([1]; peptide 1000 μg/ml) | Number of Macrophages with Yeast (Yeast Number) 4-6 ([1]; peptide 1000 μg/ml) | #/Cell ([1]; peptide 100 μg/ml) | % w/Yeast ([1]; peptide 100 μg/ml) | Number of Macrophages with Yeast (Yeast Number) 0 ([1]; peptide 100 μg/ml) | Number of Macrophages with Yeast (Yeast Number) 1-3 ([1]; peptide 100 μg/ml) | Number of Macrophages with Yeast (Yeast Number) 4-6 ([1]; peptide 100 μg/ml) |
| --- | --- | --- | --- | --- | --- | --- | --- | --- | --- | --- | --- | --- | --- | --- |
| RVYAHPF [GSD 22A] | 0 | 100 | 0 | an increase in the respiratory burst capacity was observed |  |  |  |  |  |  |  |  |  |  |
| Tyr-Ile-His-Pro-Phe (YIHPF; printed: Tyr-Ile-His-Pro-Phe) [AII(4-8)] |  |  |  |  | not to be effective; also recorded: ineffective in repeated tests |  |  |  |  |  |  |  |  |  |
| Asp-Arg-Val-Tyr-Ile-His-Pro-Ile [GSD 28] | 0 | 100 | 0 | an increase in the respiratory burst capacity was observed |  | 0.02 | 1.0% | 1 | 0 |  |  |  |  |  |
| DRPYIHPF [GSD 24B] | 0 | 100 | 0 | an increase in the respiratory burst capacity was observed |  |  |  |  |  |  |  |  |  |  |
| Asp-Arg-Val-Tyr-Ile-His-Pro (DRVYIHP; printed: Asp-Arg-Val-Tyr-Ile-His-Pro) [AII(1-7)] | 0 | 90 | 0 | an increase in the respiratory burst capacity was observed |  | 0.85 | 30.8% | 30 | 10 | 0.53 | 20.6% | 100 | 21 | 5 |
| His-Pro-Phe [AII(6-8)] |  |  |  |  | not to be effective |  |  |  |  |  |  |  |  |  |
